In patent US20240402081A1, “MOLECULAR DIFFUSION EVALUATION METHOD AND SYSTEM” (Nippon Telegraph and Telephone Corporation, priority 2021, published 2024):

Assay: SPR measurement of tracer molecule diffusion in a hydrogel layer (channel chip)
Assay type: physicochemical
Settings: aqueous solutions of glucose and ethanol as tracer molecules; FIG. 5
Description: Hereinafter, a molecular diffusion evaluation method according to an embodiment of the present invention will be described with reference to FIG. 1. First, in step S101, a solution in which a target molecule (tracer molecule) is dissolved is introduced into a channel. The channel is formed on, for example, a measurement chip used by being attached to a surface plasmon resonance (SPR) measurement system. The channel includes a measurement area by surface plasmon resonance and a hydrogel layer provided in the middle of the measurement area. […] In a process where the solution in which the target molecule is dissolved passes through the portion where the hydrogel layer is not formed and the portion where the hydrogel layer is formed, the refractive index (SPR angle) at each portion is measured in time series, and the refractive index change (time change in SPR angle) at each portion is acquired. The refractive index change measured in the process of passing through the portion where the hydrogel layer is not formed is the first measurement result. In addition, the refractive index change measured in the process of passing through the portion where the hydrogel layer is formed is the second measurement result. Next, in step S103, the diffusion rate of molecules in the hydrogel is evaluated by comparing the first measurement result with the second measurement result (evaluation step). […]

diffusion rate in the acrylamide gel, comparison of scaled SPR angle change curves: different
Compound: CCO [ethanol]
